Reference: patent publication US8288550B2, “Crystalline form of a benzimidazole-carboxamide medicinal compound” (Theravance, Inc., priority 2005, dated 2012)

Experiments:
Caco-2 cell monolayer = conditions: human, Caco-2, 1 h
Procedure: In Vitro Model of Oral Bioavailability: Caco-2 Permeation Assay
The Caco-2 permeation assay was performed to model the ability of test compounds to pass through the intestine and get into the blood stream after oral administration. The rate at which test compounds in solution permeate a cell monolayer designed to mimic the tight junction of human small intestinal monolayers was determined.
Caco-2 (colon, adenocarcinoma; human) cells were obtained from ATCC (American Type Culture Collection; Rockville, Md.). For the permeation study, cells were seeded at a density of 63,000 cells/cm^2 on pre-wetted transwells polycarbonate filters (Costar; Cambridge, Mass.). A cell monolayer was formed after 21 days in culture. Following cell culture in the transwell plate, the membrane containing the cell monolayer was detached from the transwell plate and inserted into the diffusion chamber (Costar; Cambridge, Mass.). The diffusion chamber was inserted into the heating block which was equipped with circulating external, thermostatically regulated 37° C. water for temperature control. […]
The permeation study was performed with test compound concentrations at 100 μM and with ^14C-mannitol to monitor the integrity of the monolayer. […] Samples were analyzed by HPLC or liquid scintillation counting for test compound and mannitol concentrations. The permeation coefficient (Kp) in cm/sec was calculated.

[1] = Dynamic moisture sorption assessment; type: physicochemical
Procedure: Dynamic Moisture Sorption Assessment
Dynamic moisture sorption (DMS) assessment was performed at 25° C. using a VTI atmospheric microbalance, SGA-100 system (VTI Corp., Hialeah, Fla. 33016). A sample size of approximately 5-10 mg was used and the humidity was set at the ambient value at the start of the analysis. A typical DMS analysis consisted of three scans: ambient to 2% relative humidity (RH), 2% RH to 90% RH, 90% RH to 5% RH at a scan rate of 5% RH/step. The mass was measured every two minutes and the RH was changed to the next value (±5% RH) when the mass of the sample was stable to within 0.02% for 5 consecutive points.

[2] = Solid state stability assessment (40° C. and 75% RH); type: physicochemical; conditions: three months, open glass vials
Procedure: Solid State Stability Assessment
Samples of the crystalline compound of Form I, prepared according to the process of Example 3, were stored in multiple open glass vials at 40° C. and 75% RH. At specific intervals, the contents of a representative vial was removed and analyzed by DSC, TGA, PXRD, and by HPLC for chemical purity.

[3] = Thermal gravimetric analysis (TGA); type: physicochemical; conditions: heating rate 10° C./min
Procedure: Thermogravimetric analysis (TGA) was performed using a TA Instruments Model Q-500 module. Data were collected and analyzed using TA Instruments Thermal Advantage for Q Series™ software. A sample weighing about 2 mg was placed in an aluminum pan on a platinum cradle and scanned from ambient temperature to about 300° C. with a linear heating rate of 10° C./min. The balance and furnace chambers were purged with nitrogen during use.

[4] = Stability to milling of particles; type: physicochemical; conditions: milled from mean particle size about 470 microns to about 15, 22 or 29 microns

permeation coefficient Kp (Caco-2 cell monolayer)	weight change (moisture sorption) ([1]; 2% to 90% RH, 25° C./room temperature)	weight change (moisture sorption) ([1]; critical humidity range of 40% to 75% RH)	change in DSC, TGA, PXRD after storage [2]	onset of degradation (TGA) [3]	changes by DSC, TGA or PXRD after milling [4]	SMILES
greater than 50×10^−6 cm/sec	–	–	–	–	–	COC(=O)N1CCC(CN2CCC(CNC(=O)c3cccc4[nH]c(C(C)C)nc34)CC2)CC1 [compound of the invention, 4-(4-{[(2-isopropyl-1H-benzoimidazole-4-carbonyl)amino]methyl}-piperidin-1-ylmethyl)piperidine-1-carboxylic acid methyl ester]
–	less than 0.25%	less than 0.1%	no detectable changes	above 240 °C	no changes detectable	COC(=O)N1CCC(CN2CCC(CNC(=O)c3cccc4[nH]c(C(C)C)nc34)CC2)CC1 [Form I, 4-(4-{[(2-isopropyl-1H-benzoimidazole-4-carbonyl)amino]methyl}-piperidin-1-ylmethyl)piperidine-1-carboxylic acid methyl ester]
